In publication PMC7300217, “Surfactin Like Broad Spectrum Antimicrobial Lipopeptide Co-produced With Sublancin From Bacillus subtilis Strain A52: Dual Reservoir of Bioactives” (Frontiers in Microbiology, 2020):

How the values were obtained:
M. luteus MTCC 106 = assay: MIC, microtiter plate dilution assay; format: cell-based, Micrococcus luteus; details: 5 × 10^5 CFU/ml, 37°C, OD600 after 24 h, triplicate
Protocol: (§1) The antimicrobial activity was tested by well diffusion assay as mentioned earlier ([Singh et al., 2014]). Strain A52 was grown for 24 h in 500 ml of nutrient broth (NB, Hi-media, India) using 1000 ml flask and subsequently cells were removed by centrifugation (10,000 rpm for 15 min at 4°C). Supernatant was filtered through 0.22 μm filter (Millipore, United States) to obtain cell-free fermented broth (CFB) that was used for antimicrobial assay (50 μl) against various indicator strains and the activity was measured as diameter of inhibition zone. […]
(§2) The minimum inhibitory concentration (MIC) of HPLC purified peptides was evaluated by using microtiter plate dilution assay. […] OD was measured at 600 nm after 24 and 48 h for bacteria and yeast, respectively, using ELISA microplate reader (Thermo, United States). MIC against phytopathogenic fungi was determined using 96-well microtiter plate assay ([Kaur et al., 2016]). […] The microplates were incubated at 25°C and readings were recorded at 600 nm after 48 h. […]

S. aureus MTCC 1430 [1] = assay: Transmission electron microscopy of treated cells; format: cell-based, Staphylococcus aureus; details: 2X and 5X MIC, 37°C overnight
Protocol: (§3) The effect of peptide on cell membrane was determined by scanning electron microscopy (SEM) and transmission electron microscopy (TEM) after treatment with AMPs. For this, test strains S. aureus MTCC 1430 and C. albicans MTCC 183 were cultured to mid-log phase in respective media. The cells were harvested by centrifugation at 10,000 × g for 10 min, washed thrice with 1X PBS, and re-suspended to adjust an OD600 of 0.2. […] Following the incubation, cells were processed for SEM and TEM as described ([Raje et al., 2006]). The specimens were completely dried using freeze drier, coated with gold, and visualized under a scanning electron microscope (ZEISS, Germany). For TEM (JEOL, JEM 2100, United States), cells were treated with peptide, washed, and subjected to negative stain 0.1% sodium phosphotungstate (Sigma, United States) for visualization. Effect of A52 lipopeptide on fungal spore was observed through a phase contrast microscope (Nickon H600L, Japan).

C. albicans MTCC 183 = assay: Scanning electron microscopy of treated cells; format: cell-based, Candida albicans; details: 2X and 5X MIC, 37°C overnight
Protocol: as §3

F. moniliforme MTCC 158 = assay: MIC against phytopathogenic fungi, 96-well microtiter plate assay; format: cell-based, Fusarium moniliforme; details: 1 × 10^5 spores/ml in PDB, 25°C, OD600 after 48 h, triplicate
Protocol: The antimicrobial activity was tested by well diffusion assay as mentioned earlier ([Singh et al., 2014]). Strain A52 was grown for 24 h in 500 ml of nutrient broth (NB, Hi-media, India) using 1000 ml flask and subsequently cells were removed by centrifugation (10,000 rpm for 15 min at 4°C). Supernatant was filtered through 0.22 μm filter (Millipore, United States) to obtain cell-free fermented broth (CFB) that was used for antimicrobial assay (50 μl) against various indicator strains and the activity was measured as diameter of inhibition zone. Test strains used were Staphylococcus aureus (MTCC 1430), Bacillus subtilis (MTCC 121), B. firmus (MTCC 488), B. licheniformis (MTCC 429), B. thuringiensis (MTCC 1953), Escherichia coli (MTCC 1610), Micrococcus luteus (MTCC 106), Steptococcus pyrogens (MTCC 1928), S. anginosus (MTCC 1929), S. oralis (MTCC 2696), S. mutans (MTCC 497), Candida albicans (MTCC 1637), C. albicans (MTCC 183), C. albicans (MTCC 227), C. tropicalis (MTCC 184), C. glabrata (MTCC 3019), C. haemulonii (MTCC 2766), and C. inconsplicue (MTCC 1074). The phytopathogenic fungi employed in this study were Alternaria brassicicola (MTCC 2102), Colletotrichum acutatum (MTCC 1037), and Fusarium moniliforme (MTCC 158). Clinical isolates of Candida were provided by National Culture Collection of Pathogenic Fungi (NCCPF), PGIMER, Chandigarh, India.
as §2, with “assay. The peptide concentration was estimated using BCA protein assay (Thermo Fisher Scientific, United States) method as described by manufacturer.” for “assay.”

[2] = test system: A. brassicicola MTCC 2102 spores; assay: Effect on fungal spores, phase contrast microscopy; format: cell-based, Alternaria brassicicola
Protocol: as §3

[3] = test system: A. brassicicola MTCC 2102; assay: MIC against phytopathogenic fungi, 96-well microtiter plate assay; format: cell-based, Alternaria brassicicola; details: 1 × 10^5 spores/ml in PDB, 25°C, OD600 after 48 h, triplicate
Protocol: as §1, §2

S. aureus MTCC 1430 [4] = assay: In-gel activity assay (Tricine-SDS-PAGE); format: cell-based, Staphylococcus aureus; details: 16% Tricine-SDS-PAGE, ∼10^6 cells/ml
Protocol: Purified antimicrobial peptides were analyzed on TLC plates (Silica gel 60 F254, Merck, Germany) and used to determine the purity and antimicrobial activity of the compound by bioautographic assay ([Zheng et al., 2005]). About 50–60 μl of the peptide solution (100 μg/ml concentration) was loaded onto individual TLC silica gel plates in duplicates and were developed using a solvent system containing chloroform: […]: water (65:12:4 v/v). Subsequently, each TLC plate was dried, cut into two vertical parts, and one part of the TLC was used for direct detection of antimicrobial activity by overlaying on NA plate containing indicator strain (S. aureus MTCC 1430, ∼10^6 cells/ml). After allowing for 1 h of diffusion at 4°C, the TLC strip was removed and plates were incubated for 24 h at 37°C. The other part of TLC strip (5–10 μl of the peptide solution spot) was sprayed with ninhydrin and phosphomolybdic acid as a staining reagent to detect the presence of peptides and lipid moieties, respectively. Similarly, peptides were electrophoresed on 16% Tricine-SDS-PAGE and used for in-gel activity assay as described earlier ([Baindara et al., 2016]). S. aureus MTCC 1430 (∼10^6 cells/ml) was used as an indicator strain in assay.

C. acutatum MTCC1037 = assay: MIC against phytopathogenic fungi, 96-well microtiter plate assay; format: cell-based, Colletotrichum acutatum; details: 1 × 10^5 spores/ml in PDB, 25°C, OD600 after 48 h, triplicate
Protocol: as §1, §2

[5] = Collapse drop assay (CDA); format: physicochemical; details: 5 μl of peptide (10 μg/ml) on mineral oil, observed after 1 min
Protocol: The surfactant property of peptide was determined using the qualitative drop-collapse assay ([Youssef et al., 2004]). Mineral oil (2 μl) was added to 96-well microtiter plate and equilibrated for 24 h at 37°C. After equilibration 5 μl of purified peptides (10 μg/ml) were added to the surface of the oil and drop shape was observed after 1 min using magnifying glass. Triton X-100 and water were used as positive and negative control, respectively.

B. subtilis MTCC 121 = assay: MIC, microtiter plate dilution assay; format: cell-based, Bacillus subtilis; details: 5 × 10^5 CFU/ml, 37°C, OD600 after 24 h, triplicate
Protocol: as §1, §2

For “Glu^1-Leu/Ile^2-Leu^3-Val^4-Asp^5-Leu^6-Leu/Ile^7 and a β-OH hexadecane fatty acid chain (lariat or depsi) [Lipopeptide A52, cyclic surfactin-like lipopeptide, 7 amino acids and C16 β-hydroxy fatty acid, 1061.9 Da, from B. subtilis strain A52]”, the “MIC value, M. luteus MTCC 106” value (M. luteus MTCC 106) was 1 µg/mL, the “cell morphology in TEM images” value (S. aureus MTCC 1430 [1]) was “wall rupturing and cellular lysis” and the “cell morphology in SEM images” value (C. albicans MTCC 183) was “disintegrated outer cell membrane”. The “MIC value, F. moniliforme MTCC 158” value (F. moniliforme MTCC 158) was 20 µg/mL, the “lysis of fungal spores” value [2] was “able to lyse the spores” and the “MIC value, A. brassicicola MTCC 2102” value [3] was 25 µg/mL. The “antimicrobial activity in in-gel assay” value (S. aureus MTCC 1430 [4]) was “No antimicrobial activity was detected”, the “MIC value, C. acutatum MTCC1037” value (C. acutatum MTCC1037) was 35 µg/mL and the “drop collapse (surfactant property)” value [5] was “positive”. The “MIC value, B. subtilis MTCC 121” value (B. subtilis MTCC 121) was 2 µg/mL.
